Measurements reported in ChEMBL document CHEMBL5143642, “Thiosemicarbazone derivatives: Evaluation as cruzipain inhibitors and molecular modeling study of complexes with cruzain” (Bioorg Med Chem, 2022).

What follows are molecules tested against Cruzipain (Trypanosoma cruzi, UniProt P25779) (assay: Inhibition of epimastigote form of Trypanosoma cruzi Tulahuen 2 cruzain assessed as reduction in 7-amino-4-methylcoumarin release incubated for 20 mins folllowed by Z-FR-AMC substrate addition and measured up to 45 mins by fluorometric assay).
Cruzipain, sequence (P25779 whole entry): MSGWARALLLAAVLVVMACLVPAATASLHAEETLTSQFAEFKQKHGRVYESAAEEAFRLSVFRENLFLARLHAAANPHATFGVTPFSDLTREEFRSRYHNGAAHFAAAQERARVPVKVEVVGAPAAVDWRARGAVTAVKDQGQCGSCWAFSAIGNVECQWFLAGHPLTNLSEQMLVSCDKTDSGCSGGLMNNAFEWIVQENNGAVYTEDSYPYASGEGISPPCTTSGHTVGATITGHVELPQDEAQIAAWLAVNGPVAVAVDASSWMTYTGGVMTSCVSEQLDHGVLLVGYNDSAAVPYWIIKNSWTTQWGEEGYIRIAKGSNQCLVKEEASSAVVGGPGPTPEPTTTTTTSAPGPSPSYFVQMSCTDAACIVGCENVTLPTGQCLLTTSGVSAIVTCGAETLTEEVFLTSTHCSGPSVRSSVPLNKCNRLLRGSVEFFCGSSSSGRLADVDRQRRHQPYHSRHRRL

| SMILES | IC50 [µM] |
| --- | --- |
| N/C(S)=N/N=C/c1ccc(Cl)c(Cl)c1 | 0.0816 |
| C/C(=N\NC(N)=S)c1cccc(Cl)c1 | 29.9 |
| C/C(=N\NC(N)=S)c1ccc([N+](=O)[O-])cc1 | 7.6 |
| CC/C(=N\NC(N)=S)c1cccc([N+](=O)[O-])c1 | 0.753 |
| CC/C(=N\N=C(\N)S)c1cccc(Cl)c1 | 23.2 |
| CC/C(=N\N=C(\N)S)c1ccc(Cl)c(Cl)c1 | 0.0695 |
| NC(=S)N/N=C/c1cccc(Cl)c1 | 105 |
| C/C(=N\N=C(\N)S)c1ccc(Cl)c(Cl)c1 | 0.147 |
| COc1cccc(/C(C)=N/N=C(/N)S)c1 | 1470 |
